From patent publication US5840918A, “Isoprenyl transferase inhibitors” (Eisai Co., Ltd., priority 1997, dated 1998)

Tests used:
GGTase = test: Inhibition of GGTase-mediated prenylation (in vitro prenylation assay); type: biochemical; details: Table 1; partially purified GGTase, 5 μM recombinant H-ras (61L, CAIL), 1 μM [3H] geranylgeranyl diphosphate
Excerpt: (§1) Nanomolar concentrations of the indicated compounds were sufficient to inhibit farnesylation of ras proteins in vitro. For screening candidate compounds useful for the treatment of ras-associated tumors, the FTase assay is preferred. […] Substitutions which confer GGTase specificity as taught herein also produced potent inhibitors of GGTase.

FTase = molecular target: T1, FTase (Bos taurus, UniProt P29702+P49355); test: Inhibition of FTase-mediated prenylation (in vitro prenylation assay); type: biochemical; details: Table 1; partially purified FTase, 3 μM recombinant H-ras, 440 nM [3H]FPP, 15 min 37° C
T1 construct: bovine brain by inference from the cited Moores et al. 1991
Excerpt: as §1

[1] = tested on: H-ras farnesylation in H-ras (61L) transformed NIH3T3 fibroblasts; test: Inhibition of H-ras farnesylation in whole cells (Western blot); type: cell-based, mouse
Experimental: The ability of compounds of the invention to inhibit H-ras farnesylation and rap1 geranylgeranylation in whole cells was determined. H-ras (61L) transformed NIH3T3 fibroblasts were generously provided by C. Der, Univ. N. Carolina. These fibroblasts were treated for 24 h with 50 μM lovastatin (control) or the indicated concentrations of inhibitor. The cells were lysed in 1% NP-40, 5 mM Tris-HCl (pH 8.0), 5 mM EDTA, 0.1 mM N-tosyl-L-phenylalanine chloromethyl ketone, 0.1 mM N-tosyl-L-lysine chloromethyl ketone, and 1 mM phenylmethylsulfonyl fluoride. The lysate was centrifuged (15000×g, 5 min.) and the supernatant was used as a cell extract. […] After transfer to IMMOBILON P™ membrane (Millipore), the blots were probed with LA069 mouse monoclonal antibody to H-ras (Quality Biotech), or rabbit polyclonal antibody to rap1/Krev (Santa Cruz Biotechnology). All Western blots were developed using ECL chemiluminescent reagents (Amersham).

[2] = Mus musculus, NIH3T3, 24 h, Table 2

Structure (SMILES)	IC50 (GGTase)	IC50 (FTase)	IC50 [1, 2]	IC50 ([1]; Table 2, 24 h)
CSCCC(NC(=O)C(Cc1ccccc1)OCC(C=CC(N)CSSCC(N)C=CC(COC(Cc1ccccc1)C(=O)NC(CCSC)C(=O)O)C(C)C)C(C)C)C(=O)O (stereo not drawn) [PE041]	160 nM	27 nM	190 nM	–
NC(/C=C/Cc1ccc(-c2ccccc2)c(C(=O)N[C@@H](CO)C(=O)O)c1)CS (stereo partly drawn) [PM091]	> 1000 nM	2 nM	474000 nM	–
COC(=O)[C@H](CCSC)NC(=O)c1cc(C/C=C/[C@@H](N)CS)ccc1-c1ccccc1 [PM041]	1400 nM	180 nM	2300 nM	–
CSCC[C@H](NC(=O)c1cccc(C/C=C/C(N)CS)c1)C(=O)O (stereo partly drawn) [PM102]	4850 nM	290 nM	26000 nM	–
CSCC[C@H](NC(=O)c1cc(C/C=C/C(N)CS)ccc1-c1ccc(C(F)(F)F)cc1)C(=O)O (stereo partly drawn) [PM071]	950 nM	710 nM	> 100000 nM	–
NC(C=CCc1ccc(-c2ccsc2)c(C(=O)NC(Cc2cccs2)C(=O)O)c1)CSSCC(N)C=CCc1ccc(-c2ccsc2)c(C(=O)NC(Cc2cccs2)C(=O)O)c1 (stereo not drawn) [PM022]	130 nM	18 nM	13100 nM	–
COC(=O)C(CCSC)NC(=O)C(Cc1ccccc1)OCC(C=CC(N)CSSCC(N)C=CC(COC(Cc1ccccc1)C(=O)NC(CCSC)C(=O)OC)C(C)C)C(C)C (stereo not drawn) [PE051]	2300 nM	290 nM	110 nM	–
COC(=O)[C@H](CCSC)NC(=O)C(Cc1ccccc1)NC[C@@H](/C=C/C(N)CS)C(C)C (stereo partly drawn) [PA091]	2380 nM	170 nM	100 nM	–
CSCC[C@H](NC(=O)C(/C=C/C(/C=C/CCS)C(C)C)Cc1ccccc1)C(=O)O (single isomer, unassigned) [PD112]	8050 nM	2220 nM	193000 nM	–
COC(=O)[C@H](CCSC)NC(=O)C(Cc1ccccc1)SC[C@@H](/C=C/C(N)CS)C(C)C (stereo partly drawn) [PT011]	638 nM	43 nM	23 nM	–
CSCC[C@H](NC(=O)c1cc(C/C=C/C(N)CS)ccc1-c1ccco1)C(=O)O (stereo partly drawn) [PM052]	190 nM	0.3 nM	2600 nM	–
CCOC(=O)[C@H](CCSC)NC(=O)C(/C=C/[C@@H](/C=C/C(N)CS)Cc1ccccc1)C(C)C (stereo partly drawn) [PD351]	2490 nM	320 nM	3300 nM	–
COC(=O)[C@H](CCSC)NC(=O)c1cc(CCCC(N)CS)ccc1-c1ccsc1 (stereo partly drawn) [PM132]	1630 nM	119 nM	1600 nM	–
C=Cc1ccc(C/C=C/C(N)CS)cc1C(=O)N[C@@H](CCSC)C(=O)O (stereo partly drawn) [PM012]	520 nM	2 nM	2700 nM	–
COC(=O)[C@H](CCS(C)(=O)=O)NC(=O)C(Cc1ccccc1)OC[C@@H](/C=C/C(N)CS)C(C)C (stereo partly drawn) [PE061]	6300 nM	60 nM	1100 nM	–
CC(C)C(/C=C/[C@@H](/C=C/C(N)CS)C(C)C)C(=O)N[C@H]1CCOC1=O (stereo partly drawn) [PD092]	3200 nM	52 nM	780 nM	–
COC(=O)[C@H](CCS(C)(=O)=O)NC(=O)C(Cc1cccs1)N(C)C[C@@H](/C=C/C(N)CS)C(C)C (stereo partly drawn) [PA021]	7100 nM	28 nM	80 nM	–
CSCC[C@H](NC(=O)c1cc(CCCC(N)CS)ccc1-c1ccsc1)C(=O)O (stereo partly drawn) [PM162]	120 nM	1.8 nM	13100 nM	–
CSCC[C@H](NC(=O)c1cc(C/C=C/C(N)CS)ccc1C)C(=O)O (stereo partly drawn) [PM112]	1660 nM	1.2 nM	4000 nM	–
CSCC[C@H](NC(=O)C(/C=C/[C@H](C)/C=C/C(N)CS)Cc1ccccc1)C(=O)O (stereo partly drawn) [PD441]	170 nM	26 nM	4200 nM	–
CSCC[C@H](NC(=O)c1cc(C/C=C/C(N)CS)ccc1-c1cccs1)C(=O)O (stereo partly drawn) [PM182]	520 nM	17 nM	2700 nM	–
CC(C)[C@H](/C=C/C(N)CS)COC(Cc1ccccc1)C(=O)N[C@@H](CCS(C)(=O)=O)C(=O)O (stereo partly drawn) [PE031]	140 nM	20 nM	330 nM	–

Structure (SMILES)	IC50 (GGTase)	IC50 (FTase)	IC50 [1, 2]	IC50 ([1]; Table 2, 24 h)
CC(C)COC(=O)[C@H](CCS(C)(=O)=O)NC(=O)c1cc(C/C=C/[C@@H](N)CS)ccc1-c1ccsc1 [PM072]	3960 nM	160 nM	2400 nM	–
CSCC[C@H](NC(=O)c1cc(C/C=C/C(N)CS)ccc1-c1cccc2ccccc12)C(=O)O (stereo partly drawn) [PM082]	148 nM	30 nM	21000 nM	–
COC(=O)[C@H](CCSC)NC(=O)C(Cc1cccs1)NC[C@@H](/C=C/C(N)CS)C(C)C (stereo partly drawn) [PA081]	2660 nM	102 nM	25 nM	–
CC(C)C(/C=C/[C@@H](/C=C/C(N)CS)C(C)C)C(=O)N[C@@H](CCS(C)(=O)=O)C(=O)O (stereo partly drawn) [PD172]	750 nM	7 nM	13100 nM	–
CSCC[C@H](NC(=O)c1cc(C/C=C/C(N)CS)ccc1-c1cccc(C(F)(F)F)c1)C(=O)O (stereo partly drawn) [PM111]	246 nM	24 nM	> 100000 nM	–
COc1ccc(C/C=C/C(N)CS)cc1C(=O)N[C@@H](CCSC)C(=O)O (stereo partly drawn) [PM122]	2200 nM	3 nM	23400 nM	–
CSCC[C@H](NC(=O)C(/C=C/[C@@H](/C=C/C(N)CS)C(C)C)C(C)C)C(=O)NCc1ccccn1 (stereo partly drawn) [PD192]	2990 nM	296 nM	180 nM	–
COC(=O)[C@H](CCS(C)(=O)=O)NC(=O)c1cc(CCC[C@@H](N)CS)ccc1-c1ccsc1 [PM032]	6590 nM	93 nM	19500 nM	–
CC(C)C(/C=C/[C@@H](/C=C/C(N)CS)C(C)C)C(=O)N[C@@H](CO)C(=O)O (stereo partly drawn) [PD202]	1120 nM	17 nM	1950 nM	–
NC(/C=C/Cc1ccc(-c2ccccc2)c(C(=O)N[C@@H](Cc2ccccc2)C(=O)O)c1)CS (stereo partly drawn) [PM172]	123 nM	56 nM	> 100000 nM	–
COC(=O)[C@H](CCSC)NC(=O)C(Cc1ccccc1)OC[C@@H](/C=C/C(N)CS)C(C)C (stereo partly drawn) [PE011]	1030 nM	43 nM	10 nM	–
CSCC[C@H](NC(=O)C(/C=C/[C@@H](/C=C/C(N)CS)C(C)(C)C)C(C)C)C(=O)O (stereo partly drawn) [PD142]	2120 nM	42 nM	7300 nM	–
CSCC[C@H](NC(=O)C(Cc1ccccc1)OC[C@@H](/C=C/C(N)CS)C(C)C)C(=O)O (stereo partly drawn) [PE021]	92 nM	9 nM	280 nM	–
CSCC[C@H](NC(=O)C(Cc1ccccc1)NC[C@@H](/C=C/C(N)CS)C(C)C)C(=O)O (stereo partly drawn) [PA041]	56 nM	2.5 nM	3500 nM	–
CSCCC(NC(=O)c1cc(CC=CC(N)CSSCC(N)C=CCc2ccc(-c3ccccc3)c(C(=O)NC(CCSC)C(=O)O)c2)ccc1-c1ccccc1)C(=O)O (stereo not drawn) [PM141]	16 nM	0.1 nM	9700 nM	–
CSCCC(NC(=O)C(/C=C\[C@@H](/C=C/C(N)CS)C(C)C)C(C)C)C(=O)O (stereo partly drawn) [PD122]	10 nM	3 nM	400 nM	–
CSCC[C@H](NC(=O)C(/C=C/[C@@H](/C=C/C(N)CS)C(C)(C)C)Cc1ccccc1)C(=O)O (stereo partly drawn) [PD012]	620 nM	38 nM	–	72000 nM
CC(C)[C@H](/C=C/C(N)CS)CN(C)C(Cc1cccs1)C(=O)N[C@@H](CCS(C)(=O)=O)C(=O)O (stereo partly drawn) [PA121]	380 nM	15 nM	580 nM	–
CSCC[C@H](NC(=O)C(/C=C/C(/C=C/CCS)C(C)C)Cc1ccccc1)C(=O)O (stereo partly drawn) [PD162]	4570 nM	260 nM	326000 nM	–
CSCC[C@H](NC(=O)c1cc(C/C=C/C(N)CS)ccc1-c1ccsc1)C(=O)O (stereo partly drawn) [PM021]	75 nM	17 nM	2100 nM	–
COC(=O)[C@H](CCSC)NCc1cc(C/C=C/[C@@H](N)CS)ccc1-c1ccccc1 [PM031]	1400 nM	115 nM	25000 nM	–
